Data set [1] can be described thus: Stability in human plasma. It is filed as in vitro ADME. The settings on record: pooled human plasma (lithium heparin), 1 μM compound, 37° C., 1 hour incubation. The protocol:
The stability of the compounds of the invention in human plasma may be measured as follows:
Stability in Human Plasma
Blood was taken from healthy volunteers in lithium heparin tubes and plasma was prepared by centrifugal separation of blood cells at 1500 g. Plasma from at least 3 individuals was pooled and used for compound stability determination.
Compounds were prepared in 100% DMSO at a concentration of 10 mM and serially diluted to a concentration of 100 μM. Incubations were performed at a final concentration of 1 μM and were initiated by addition of 3 μl of 100 μM compound stock solution into 297 μl plasma, pre-warmed in a water bath to 37° C., followed by brief vortex mixing. 50 μl aliquots of plasma were removed at 4 timepoints over a 1 hour incubation period and quenched immediately by protein precipitation achieved by addition of the aliquot of plasma to a pre-prepared 96 well plate containing 150 μl of acetonitrile containing an appropriate internal standard. Acetonitrile quenched samples were vortex mixed followed by centrifugation for 20 minutes at 1500 g to remove the precipitated proteins. Initial compound levels (at time=0 minutes) was established by spiking compound into pre-quenched plasma at the same concentration as used in the incubation. The supernatant was then removed, diluted 1:1 with water and analysed for compound remaining by liquid chromatography-tandem mass spectrometry (Waters Acquity HPLC, Applied Biosystems API4000). The plasma elimination rate constant of the compound was calculated by fitting the peak area ratio of compound:internal standard to an exponential decay function and the half life calculated by division of the natural log of 2 by the elimination rate constant (Microsoft Excel).

For data set [2], the target named is T1, epithelial sodium channel (ENaC) (Homo sapiens, UniProt P37088+P51168+P51170).
T1 construct: host or cells: primary Human Bronchial Epithelial cells (HBECs), differentiated at air-liquid interface
T1 sequence (P37088 1-669): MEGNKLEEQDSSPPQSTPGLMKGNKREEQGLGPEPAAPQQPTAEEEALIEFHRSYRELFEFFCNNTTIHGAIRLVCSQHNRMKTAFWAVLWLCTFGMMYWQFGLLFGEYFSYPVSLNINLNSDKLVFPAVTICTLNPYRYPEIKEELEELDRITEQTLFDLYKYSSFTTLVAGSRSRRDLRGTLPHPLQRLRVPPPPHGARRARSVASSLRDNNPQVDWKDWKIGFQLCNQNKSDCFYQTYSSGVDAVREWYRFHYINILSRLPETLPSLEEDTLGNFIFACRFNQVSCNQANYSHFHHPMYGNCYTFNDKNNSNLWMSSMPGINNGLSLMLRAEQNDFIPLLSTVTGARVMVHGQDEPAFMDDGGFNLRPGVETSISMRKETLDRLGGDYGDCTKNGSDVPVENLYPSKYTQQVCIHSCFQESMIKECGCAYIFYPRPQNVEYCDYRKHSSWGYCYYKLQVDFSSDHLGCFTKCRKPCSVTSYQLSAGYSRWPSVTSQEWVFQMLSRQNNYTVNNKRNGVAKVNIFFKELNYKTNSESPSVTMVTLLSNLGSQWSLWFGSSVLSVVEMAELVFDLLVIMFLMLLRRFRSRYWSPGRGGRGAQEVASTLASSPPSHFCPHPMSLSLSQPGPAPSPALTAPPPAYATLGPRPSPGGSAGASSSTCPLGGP
T1 sequence (P51168 1-640): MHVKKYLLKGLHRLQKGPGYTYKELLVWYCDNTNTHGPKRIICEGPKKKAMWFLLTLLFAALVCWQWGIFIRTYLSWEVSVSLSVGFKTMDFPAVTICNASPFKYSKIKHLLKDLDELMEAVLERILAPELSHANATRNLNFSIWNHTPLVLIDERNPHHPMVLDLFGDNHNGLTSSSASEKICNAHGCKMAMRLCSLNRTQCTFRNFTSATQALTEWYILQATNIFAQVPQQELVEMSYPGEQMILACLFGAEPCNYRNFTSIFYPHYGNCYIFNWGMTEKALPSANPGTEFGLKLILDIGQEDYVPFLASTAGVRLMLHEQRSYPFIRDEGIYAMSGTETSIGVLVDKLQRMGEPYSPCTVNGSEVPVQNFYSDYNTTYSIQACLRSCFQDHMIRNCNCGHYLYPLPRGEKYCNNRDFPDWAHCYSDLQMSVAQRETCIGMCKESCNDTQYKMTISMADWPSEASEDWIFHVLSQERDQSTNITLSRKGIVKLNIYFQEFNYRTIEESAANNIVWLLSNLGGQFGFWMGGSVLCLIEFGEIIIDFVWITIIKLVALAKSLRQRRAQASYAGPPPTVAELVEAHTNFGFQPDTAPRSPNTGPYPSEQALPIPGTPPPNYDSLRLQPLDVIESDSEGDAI
T1 sequence (P51170 1-649): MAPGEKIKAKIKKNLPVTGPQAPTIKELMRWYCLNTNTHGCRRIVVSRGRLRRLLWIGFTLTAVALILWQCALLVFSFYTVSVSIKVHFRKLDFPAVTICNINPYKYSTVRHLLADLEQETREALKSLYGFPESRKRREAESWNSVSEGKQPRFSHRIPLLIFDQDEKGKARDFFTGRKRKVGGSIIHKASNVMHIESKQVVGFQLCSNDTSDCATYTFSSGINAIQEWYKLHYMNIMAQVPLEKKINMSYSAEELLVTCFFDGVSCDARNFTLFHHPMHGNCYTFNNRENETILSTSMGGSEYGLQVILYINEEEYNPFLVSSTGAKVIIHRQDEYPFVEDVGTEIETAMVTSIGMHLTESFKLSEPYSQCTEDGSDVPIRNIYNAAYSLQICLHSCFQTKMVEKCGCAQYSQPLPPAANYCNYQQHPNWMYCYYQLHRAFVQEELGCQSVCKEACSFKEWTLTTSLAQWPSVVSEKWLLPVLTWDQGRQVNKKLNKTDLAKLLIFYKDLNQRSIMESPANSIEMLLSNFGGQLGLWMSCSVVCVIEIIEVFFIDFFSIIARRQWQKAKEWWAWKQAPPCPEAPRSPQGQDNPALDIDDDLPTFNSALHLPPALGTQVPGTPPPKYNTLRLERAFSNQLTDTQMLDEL
The data set is described as follows: Short circuit current (ISC) measurements in Human Bronchial Epithelial cells (HBEC-ENaC). It is filed as cell-based. As to conditions: inhibition of amiloride-sensitive ISC, HBECs at air-liquid interface, Ussing chamber, apical addition. The protocol: Human Bronchial Epithelial cells (HBECs) (Cambrex) were cultured under air-liquid interface conditions to provide a well differentiated mucociliary phenotype.
Medium was changed every 48 hours until cells were 90% confluent. […] Cells were maintained submerged for the first 7 days in culture, after which time they were exposed to an apical air interface for the remainder of the culture period. At this time, media was changed to DMEM:F12 media containing 2% v/v Ultroser G for the remainder of culture. Amphotericin B was removed from all media 3 feeds prior to use in the Ussing Chambers. Cells were used between days 7 and 21 after establishment of the apical-air interface. At all stages of culture, cells were maintained at 37° C. in 5% CO2 in an air incubator.
Short Circuit Current (ISC) Measurements
Snapwell inserts were mounted in Vertical Diffusion Chambers (Costar) and were bathed with continuously gassed Ringer solution (5% CO2 in O2; pH 7.4) maintained at 37° C. containing (in mM): 120 NaCl, 25 NaHCO3, 3.3 KH2PO4, 0.8 K2HPO4, 1.2 CaCl2, 1.2 MgCl2, and 10 glucose. The solution osmolarity was between 280 and 300 mOsmol/kg H2O for all physiological salt solutions used. Cells were voltage clamped to 0 mV (model EVC4000; WPI). RT was measured by applying a 1- or 2-mV pulse at 30-s intervals and calculating RT by Ohm's law. Data were recorded using a PowerLab workstation (ADInstruments).
Test compounds were prepared as a 10 mM stock solution in DMSO (95%). Serial 3-fold dilutions were freshly prepared in an appropriate vehicle (distilled H2O or Ringers solution). The initial concentration was added to the apical chamber as a 1000× concentrate in 5 μL, resulting in a final 1× concentration the 5 mL volume of the Ussing chamber. Subsequent additions of compound were added in a 3.3 μL volume of the 1000× serially diluted stock solution. At the completion of the concentration-response experiment, amiloride (10 μM) was added into the apical chamber to enable the total amiloride-sensitive current to be measured. An amiloride control IC50 was established at the start of each experiment.
Results are expressed as the mean % inhibition of the amiloride-sensitive ISC. […] Cell inserts were typically run in duplicate and the IC50 calculated on the mean % inhibition data.

Counter-ions that a name gives are not always drawn.

Among the data in US8372845B2, “Pyrazine derivatives as enac blockers” (Novartis AG, priority 2010, dated 2013) are half-life and IC50 values, retold here.

The term half-life denotes the time in which the quantity being followed falls by half. The low end stands for rapid decline, the high end for slow decline. As a reminder, the IC50 is the point on the concentration scale where inhibition reaches its midpoint. Read a low IC50 as higher potency. Compound `CCCN(CCC)C(=O)COC(=O)CCNS(=O)(=O)c1cccc(C(=O)N2CCC3(CC2)CN/C(=N\C(=O)c2nc(Cl)c(N)nc2N)N3)c1` [Example 1.0, 3-(3-{2-[(E)-3,5-Diamino-6-chloro-pyrazine-2-carbonylimino]-1,3,8-triaza-spiro[4.5]decane-8-carbonyl}-benzenesulfonylamino)-propionic acid dipropylcarbamoylmethyl ester succinate salt] had a half-life at 1 μM in data set [1] of 2 min. Also, half-maximal inhibition in data set [2] (IC50) was put at 17 nM.

The compound `CN(CCO)C(=O)COC(=O)COc1ccc(CCC(=O)N2CCC3(CC2)CN/C(=N/C(=O)c2nc(Cl)c(N)nc2N)N3)cc1` [Example 1.1, [4-(3-{2-[(Z)-3,5-Diamino-6-chloro-pyrazine-2-carbonylimino]-1,3,8-triaza-spiro[4.5]dec-8-yl}-3-oxo-propyl)-phenoxy]-acetic acid [(2-hydroxy-ethyl)-methyl-carbamoyl]-methyl ester] showed an IC50 in data set [2] of 419 nM.

In turn, `Nc1nc(N)c(C(=O)/N=C2\NCC3(CCN(C(=O)CCc4ccc(OCC(=O)OCC(=O)OC5CCCCC5)cc4)CC3)N2)nc1Cl` [Example 1.2, [4-(3-{2-[(E)-3,5-Diamino-6-chloro-pyrazine-2-carbonylimino]-1,3,8-triaza-spiro[4.5]dec-8-yl}-3-oxo-propyl)-phenoxy]-acetic acid cyclohexyl oxycarbonylmethyl ester] gave a half-life at 1 μM in data set [1] of 3 min. In data set [2], this compound registered an IC50 of 10 nM. Taken in the same sequence, the figures for `Nc1nc(N)c(C(=O)/N=C2\NCC3(CCN(C(=O)c4cccc(S(=O)(=O)NCCC(=O)OCC(=O)OC5CCCCC5)c4)CC3)N2)nc1Cl` [Example 1.3, 3-(3-{2-[(E)-3,5-Diamino-6-chloro-pyrazine-2-carbonylimino]-1,3,8-triaza-spiro[4.5]decane-8-carbonyl}-benzenesulfonylamino)-propionic acid cyclohexyloxy carbonylmethyl ester] were 4 min and 3 nM. `CN(C)C(=O)COC(=O)COc1ccc(CCC(=O)N2CCC3(CC2)CN/C(=N\C(=O)c2nc(Cl)c(N)nc2N)N3)cc1` [Example 1.4, [4-(3-{2-[(E)-3,5-Diamino-6-chloro-pyrazine-2-carbonylimino]-1,3,8-triaza-spiro[4.5]dec-8-yl}-3-oxo-propyl)-phenoxy]-acetic acid dimethylcarbamoylmethyl ester] displayed an IC50 in data set [2] of 302 nM.

`CCCN(CCC)C(=O)COC(=O)COc1ccc(CCC(=O)N2CCC3(CC2)CN/C(=N\C(=O)c2nc(Cl)c(N)nc2N)N3)cc1` [Example 2.0, [4-(3-{2-[(E)-3,5-Diamino-6-chloro-pyrazine-2-carbonylimino]-1,3,8-triaza-spiro[4.5]dec-8-yl}-3-oxo-propyl)-phenoxy]-acetic acid dipropylcarbamoylmethyl ester] yielded a half-life at 1 μM in data set [1] of 1 min. The same compound had an IC50 in data set [2] of 32 nM. Turning to `CC(C)(C)OC(=O)COC(=O)COc1ccc(CCC(=O)N2CCC3(CC2)CN/C(=N\C(=O)c2nc(Cl)c(N)nc2N)N3)cc1` [Example 2.1, [4-(3-{2-[(E)-3,5-Diamino-6-chloro-pyrazine-2-carbonylimino]-1,3,8-triaza-spiro[4.5]dec-8-yl}-3-oxo-propyl)-phenoxy]-acetic acid tert-butoxycarbonylmethyl ester], the half-life at 1 μM in data set [1] stood at 5 min. In data set [2], half-maximal inhibition (IC50) was put at 30 nM. As to `Nc1nc(N)c(C(=O)/N=C2\NCC3(CCN(C(=O)CCc4ccc(OCC(=O)OCC(=O)OCc5ccccc5)cc4)CC3)N2)nc1Cl` [Example 2.2, [4-(3-{2-[(E)-3,5-Diamino-6-chloro-pyrazine-2-carbonylimino]-1,3,8-triaza-spiro[4.5]dec-8-yl}-3-oxo-propyl)-phenoxy]-acetic acid benzyloxycarbonylmethyl ester], the IC50 in data set [2] came to 12 nM.

In data set [2], `CCN(CC)C(=O)COC(=O)COc1ccc(CCC(=O)N2CCC3(CC2)CN/C(=N\C(=O)c2nc(Cl)c(N)nc2N)N3)cc1` [Example 2.3, [4-(3-{2-[(E)-3,5-Diamino-6-chloro-pyrazine-2-carbonylimino]-1,3,8-triaza-spiro[4.5]dec-8-yl}-3-oxo-propyl)-phenoxy]-acetic acid diethylcarbamoylmethyl ester] returned an IC50 of 89 nM. The same measure, in the same setting: under `Nc1nc(N)c(C(=O)/N=C2\NCC3(CCN(C(=O)CCc4ccc(OCC(=O)OCC(=O)N5CCCCC5)cc4)CC3)N2)nc1Cl` [Example 2.4, [4-(3-{2-[(E)-3,5-Diamino-6-chloro-pyrazine-2-carbonylimino]-1,3,8-triaza-spiro[4.5]dec-8-yl}-3-oxo-propyl)-phenoxy]-acetic acid 2-oxo-2-piperidin-1-yl-ethyl ester] stands 110 nM.
